In ChEMBL document CHEMBL3091425, “Benzoxazine Derivatives As CRAC Modulators” (ACS Med Chem Lett, 2013) one finds IC50 data, which are given here for six molecules.

Experiment [1] in a line: Modulation of calcium release-activated calcium channel in mitomycin C-stimulated human PBMC assessed as [3H]thymidine incorporation after 4 days by topcount scintillation counting analysis.
A short description of experiment [2]: Modulation of calcium release-activated calcium channel in human jurkat cells assessed as inhibition of PHA/PMA/ionomycin-stimulated IL2 production incubated 10 mins prior to PHA/PMA/ionomycin-challenge measured after 18 to 20 hrs. The experiment is classed as cell-based.
Experiment [3] can be described thus: Modulation of calcium release-activated calcium channel in human whole blood T cells assessed as inhibition of thapsigargin-stimulated IL2 production incubated 30 mins prior to thapsigargin-challenge measured after overnight incubation by AlphaLISA IL-2 assay. The format is cell-based. The following applies: T-cell. A general note: Bead proximity is the source of the signal in Alpha formats.

As usually defined, the IC50 is the concentration that inhibits the measured activity by half.

As for `CCc1sc(-c2cccnc2)nc1-c1ccc2c(c1)OCC(c1c(F)cccc1F)N2` (stereo not drawn), the IC50 is 100 nM in experiment [1], 30 nM in experiment [2] and 520 nM in experiment [3].

As to `CCc1sc(-c2ccncc2)nc1-c1ccc2c(c1)OCC(c1c(F)cccc1F)N2` (stereo not drawn), the IC50 in experiment [1] came out at 440 nM; in experiment [2], 20 nM; in experiment [3] it was 320 nM.

`CCc1sc(-c2cc(C)on2)nc1-c1ccc2c(c1)OCC(c1c(F)cccc1F)N2` (stereo not drawn): the IC50 in experiment [1] was found to be 430 nM; in experiment [2], 30 nM; in experiment [3], 360 nM.

With `Cc1sc(-c2cccnc2)nc1-c1ccc2c(c1)OCC(c1c(F)cccc1F)N2` (stereo not drawn), the figures for the concentration for half-maximal inhibition (IC50) in experiment [1], in experiment [2] and in experiment [3] were 190 nM, 30 nM and 430 nM, respectively.

For the molecule `CCc1sc(-c2cnccn2)nc1-c1ccc2c(c1)OCC(c1c(F)cccc1F)N2` (stereo not drawn), the IC50 in experiment [1] came out at 180 nM; in experiment [2], 20 nM; in experiment [3] it was 870 nM.

As to `CCn1nc(-c2cccnc2)cc1-c1ccc2c(c1)OCC(c1c(F)cccc1F)N2` (stereo not drawn), the half-inhibitory concentration (IC50) in experiment [1] came out at 330 nM; in experiment [2], 70 nM; in experiment [3], 320 nM.
